From ChEMBL document CHEMBL1201862, “PubChem BioAssay data set” (2004)
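Five concentrations, 48 hours, 96-well plates. Here, GI50 denotes the concentration required for 50% inhibition of growth.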 Active and inactive are the calls of the source. Cut-off read from the data, not from the text of the source: active = GI50 up to about 1.1 µM and inactive = higher.

Assays:
Assay in all cases: NCI tumour cell line growth inhibition, 48 h
HOP-92 = tested on: HOP-92
Malme-3M = tested on: Malme-3M
PC-3 = tested on: PC-3
M14 = tested on: M14
SF-539 = tested on: SF-539
RXF 393 = tested on: RXF 393
MDA-N = tested on: MDA-N
NCI-H522 = tested on: NCI-H522
OVCAR-5 = tested on: OVCAR-5
DU-145 = tested on: DU-145
A549 = tested on: A549
U-251 = tested on: U-251
CCRF-CEM = tested on: CCRF-CEM
SK-OV-3 = tested on: SK-OV-3
SNB-75 = tested on: SNB-75
KM12 = tested on: KM12
SW-620 = tested on: SW-620
NCI-H226 = tested on: NCI-H226
UACC-257 = tested on: UACC-257
SK-MEL-28 = tested on: SK-MEL-28

Compound	GI50 (HOP-92)	GI50 (Malme-3M)	GI50 (PC-3)	GI50 (M14)	GI50 (SF-539)	GI50 (RXF 393)	GI50 (MDA-N)	GI50 (NCI-H522)	GI50 (OVCAR-5)	GI50 (DU-145)	GI50 (A549)	GI50 (U-251)	GI50 (CCRF-CEM)	GI50 (SK-OV-3)	GI50 (SNB-75)	GI50 (KM12)	GI50 (SW-620)	GI50 (NCI-H226)	GI50 (UACC-257)	GI50 (SK-MEL-28)
CC[C@](O)(C(=O)O)c1cc2n(c(=O)c1CO)Cc1cc3ccccc3nc1-2	0.112 µM (active)	0.0975 µM (active)	0.131 µM (active)	0.00292 µM (active)	0.0697 µM (active)	0.0384 µM (active)	0.0373 µM (active)	0.0306 µM (active)	0.0566 µM (active)	0.0137 µM (active)	0.0261 µM (active)	0.025 µM (active)	0.025 µM (active)	0.0372 µM (active)	0.0333 µM (active)	–	–	–	–	–
N#Cc1c(-c2cccc(Br)c2)cc(-c2ccc(Cl)cc2)nc1N	11.2 µM (inactive)	23.7 µM (inactive)	22.2 µM (inactive)	20.7 µM (inactive)	18.1 µM (inactive)	15.8 µM (inactive)	20.5 µM (inactive)	14.1 µM (inactive)	25.5 µM (inactive)	46 µM (inactive)	21 µM (inactive)	16.4 µM (inactive)	27.2 µM (inactive)	16.8 µM (inactive)	–	20.9 µM (inactive)	18.2 µM (inactive)	17.5 µM (inactive)	17.3 µM (inactive)	–
COC(=O)C(=O)c1cc2ccccc2n1S(=O)(=O)c1ccccc1	> 100 µM (inactive)	> 100 µM (inactive)	> 100 µM (inactive)	> 100 µM (inactive)	> 100 µM (inactive)	> 100 µM (inactive)	> 100 µM (inactive)	> 100 µM (inactive)	> 100 µM (inactive)	> 100 µM (inactive)	> 100 µM (inactive)	> 100 µM (inactive)	> 100 µM (inactive)	> 100 µM (inactive)	84.5 µM (inactive)	> 100 µM (inactive)	> 100 µM (inactive)	–	> 100 µM (inactive)	> 100 µM (inactive)
CCN(CC)c1ccc2cc(-c3nc4ccccc4n3C)c(=O)oc2c1	0.873 µM (active)	–	0.2 µM (active)	0.355 µM (active)	0.222 µM (active)	1.74 µM (inactive)	0.0259 µM (active)	0.205 µM (active)	1.15 µM (inactive)	0.306 µM (active)	0.578 µM (active)	0.352 µM (active)	0.154 µM (active)	0.33 µM (active)	0.0177 µM (active)	0.571 µM (active)	0.163 µM (active)	0.302 µM (active)	1.17 µM (inactive)	–
CCOC1=NC(O)c2cccn2-c2sccc21 (stereo not given)	> 100 µM (inactive)	> 100 µM (inactive)	> 100 µM (inactive)	> 100 µM (inactive)	> 100 µM (inactive)	> 100 µM (inactive)	> 100 µM (inactive)	> 100 µM (inactive)	> 100 µM (inactive)	> 100 µM (inactive)	43.2 µM (inactive)	> 100 µM (inactive)	–	93.3 µM (inactive)	–	> 100 µM (inactive)	> 100 µM (inactive)	–	–	> 100 µM (inactive)
Cc1occc1/C(S)=N\c1ccc(Cl)c(C(=O)OCC2CC2)c1	30.8 µM (inactive)	88.5 µM (inactive)	30.4 µM (inactive)	85.5 µM (inactive)	51.6 µM (inactive)	–	41.6 µM (inactive)	21.9 µM (inactive)	> 100 µM (inactive)	73.3 µM (inactive)	> 100 µM (inactive)	95.3 µM (inactive)	20.7 µM (inactive)	35.6 µM (inactive)	23.9 µM (inactive)	32.3 µM (inactive)	54.7 µM (inactive)	53.2 µM (inactive)	22.3 µM (inactive)	72.6 µM (inactive)
